Target: human neprilysin (EC 3.4.24.11; NEP) (Homo sapiens (Human), UniProt P08473)
Test: In vitro enzyme inhibition assay at human NEP (fluorogenic peptide substrate)
Format: biochemical
Conditions: pKi values at human NEP, recombinant human NEP
In short: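 Recombinant human NEP preincubated 30 min at 37 °C with compound (10 μM down to pM), then 10 μM Mca-D-Arg-Arg-Leu-Dap-(Dnp)-OH in 50 mM HEPES pH 7.5, 100 mM NaCl, 0.01% Tween-20, 10 μM ZnSO4. Stopped after 20 min with acetic acid; fluorescence Ex320/Em405; Ki by nonlinear fit, reported as pKi.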

Chain of human neprilysin (EC 3.4.24.11; NEP) (P08473 52-750): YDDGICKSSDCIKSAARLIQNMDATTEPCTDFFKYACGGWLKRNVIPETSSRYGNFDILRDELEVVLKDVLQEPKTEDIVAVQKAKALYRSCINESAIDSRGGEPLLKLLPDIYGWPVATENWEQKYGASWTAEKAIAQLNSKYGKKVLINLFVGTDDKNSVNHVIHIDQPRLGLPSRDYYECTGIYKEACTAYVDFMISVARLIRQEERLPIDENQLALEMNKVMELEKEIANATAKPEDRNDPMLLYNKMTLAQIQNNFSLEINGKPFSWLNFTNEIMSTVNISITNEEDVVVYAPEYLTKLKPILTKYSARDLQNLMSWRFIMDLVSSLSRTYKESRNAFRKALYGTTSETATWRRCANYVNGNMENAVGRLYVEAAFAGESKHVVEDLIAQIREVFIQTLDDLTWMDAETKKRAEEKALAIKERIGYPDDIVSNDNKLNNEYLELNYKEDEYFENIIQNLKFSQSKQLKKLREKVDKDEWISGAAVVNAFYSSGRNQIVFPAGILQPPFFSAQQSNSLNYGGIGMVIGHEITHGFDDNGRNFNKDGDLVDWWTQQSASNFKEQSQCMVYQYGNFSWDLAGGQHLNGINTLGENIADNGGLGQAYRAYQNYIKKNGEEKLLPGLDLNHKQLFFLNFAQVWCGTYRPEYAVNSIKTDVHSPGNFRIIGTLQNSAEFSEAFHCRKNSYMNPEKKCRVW

Row | pKi | Ki [nM] | Compound
1 | ≥9.0 |  | NC(=O)C1CCN(C(=O)c2cc(C(=O)N[C@H](Cc3ccc(-c4ccccc4)cc3)C[C@@H](O)C(=O)O)[nH]n2)C1 (stereo partly drawn) [Example 15-46, (2R,4R)-5-Biphenyl-4-yl-4-{[5-(3-carbamoylpyrrolidine-1-carbonyl)-2H-pyrazole-3-carbonyl]-amino}-2-hydroxy-pentanoic acid]
2 |  | 12.6 to 100 | CCC(=O)Nc1cc(C(=O)N[C@H](Cc2ccc(-c3ccccc3)cc2)CC(O)C(=O)O)[nH]n1 (stereo partly drawn) [Example 15-91, (R)-5-Biphenyl-4-yl-2-hydroxy-4-[(5-propionylamino-2H-pyrazole-3-carbonyl)-amino]-pentanoic acid]
3 |  | 1.26 to 10 | CCCCc1cc(C(=O)N[C@H](Cc2ccc(-c3ccccc3)cc2)C[C@@H](O)C(=O)O)[nH]n1 [Example 15-112, (2R,4R)-5-Biphenyl-4-yl-4-[(5-butyl-2H-pyrazole-3-carbonyl)-amino]-2-hydroxy-pentanoic acid]
4 | ≥9.0 |  | CC(C)(c1ccc(-c2ccccc2)cc1)[C@H](C[C@@H](O)C(=O)O)NC(=O)c1cc(O)no1 [Example 25-3, (2R,4S)-5-Biphenyl-4-yl-2-hydroxy-4-[(3-hydroxy-isoxazole-5-carbonyl)-amino]-5-methyl-hexanoic acid]
5 |  | 1.26 to 10 | CC(C)(c1ccc(-c2ccccc2)cc1)[C@H](C[C@@H](O)C(=O)O)NC(=O)c1cn(O)nn1 [Example 25-2, (2R,4S)-5-Biphenyl-4-yl-2-hydroxy-4-[(1-hydroxy-1H-[1,2,3]triazole-4-carbonyl)-amino]-5-methyl-hexanoic acid]
6 |  | 12.6 to 100 | CC(C)(c1ccc(-c2ccccc2)cc1)[C@H](C[C@@H](O)C(=O)O)NC(=O)c1c[nH]nn1 [Example 25-1, (2R,4S)-5-Biphenyl-4-yl-2-hydroxy-5-methyl-4-[(1H-[1,2,3]triazole-4-carbonyl)-amino]-hexanoic acid]
7 | ≥9.0 |  | O=C(N[C@@H](Cc1ccc(-c2cc(O)cc(Cl)c2)cc1)C[C@H](O)C(=O)O)c1ccc2nnn(O)c2c1 [Example 23-8, (2S,4S)-5-(3′-Chloro-5′-hydroxy-biphenyl-4-yl)-2-hydroxy-4-[(3-hydroxy-3H-benzotriazole-5-carbonyl)-amino]-pentanoic acid]
8 | ≥9.0 |  | O=C(N[C@H](Cc1ccc(-c2ccccc2)cc1Cl)C[C@@H](O)C(=O)O)c1c[nH]nn1 [Example 20-1, (2R,4R)-5-(3-Chlorobiphenyl-4-yl)-2-hydroxy-4-[(1H-[1,2,3]triazole-4-carbonyl)-amino]-pentanoic acid]
9 |  | 1.26 to 10 | COc1ccccc1C(=O)Nc1cc(C(=O)N[C@H](Cc2ccc(-c3ccccc3)cc2)C[C@@H](O)C(=O)O)n[nH]1 [Example 15-32, (2R,4R)-5-Biphenyl-4-yl-2-hydroxy-4-{[5-(2-methoxy-benzoylamino)-1H-pyrazole-3-carbonyl]-amino}-pentanoic acid]
10 |  | 1.26 to 10 | O=C(Nc1cc(C(=O)N[C@H](Cc2ccc(-c3ccccc3)cc2)CC(O)C(=O)O)[nH]n1)c1ccccn1 (stereo partly drawn) [Example 15-100, (R)-5-Biphenyl-4-yl-2-hydroxy-4-({5-[(pyridine-2-carbonyl)-amino]-2H-pyrazole-3-carbonyl}-amino)-pentanoic acid]
11 |  | 1.26 to 10 | O=C(N[C@H](Cc1ccc(-c2ccccc2)cc1)CC(O)C(=O)O)c1cc(-c2ccc(F)cc2)n[nH]1 (stereo partly drawn) [Example 15-82, (R)-5-Biphenyl-4-yl-4-{[5-(4-fluorophenyl)-2H-pyrazole-3-carbonyl]amino}-2-hydroxy-pentanoic acid]
12 | ≥9.0 |  | CC(C)(C)c1cc(C(=O)N[C@H](Cc2ccc(-c3cccc(Cl)c3)cc2)C[C@@H](O)C(=O)O)on1 [Example 18-14, (2R,4R)-4-[(3-tert-Butyl-isoxazole-5-carbonyl)-amino]-5-(3′-chloro-biphenyl-4-yl)-2-hydroxy-pentanoic acid]

More lines, now with the values behind:

Row | Compound | pKi | Ki [nM]
13 | COCCN(C)C(=O)c1cc(C(=O)N[C@H](Cc2ccc(-c3ccccc3)cc2)C[C@@H](O)C(=O)O)[nH]n1 [Example 3-D, (2R,4R)-5-Biphenyl-4-yl-2-hydroxy-4-({5-[(2-methoxyethyl)methylcarbamoyl]-2H-pyrazole-3-carbonyl}amino)pentanoic Acid] | ≥9.0 | 
14 | O=C(N[C@H](Cc1ccc(-c2ccccc2)cc1)C[C@H](O)C(=O)O)c1cnc2[nH]nnc2c1 [Example 11-13, (2S,4R)-5-Biphenyl-4-yl-2-hydroxy-4-[(3H-[1,2,3]triazolo[4,5-b]pyridine-6-carbonyl)-amino]-pentanoic acid] | ≥9.0 | 
15 | O=C(O)c1ccc(C(=O)N[C@H](Cc2ccc(-c3ccccc3)cc2)CC(O)C(=O)O)s1 (stereo partly drawn) [Example 12-2, 5-((R)-1-Biphenyl-4-ylmethyl-3-carboxy-3-hydroxypropylcarbamoyl)thiophene-2-carboxylic acid] |  | 1.26 to 10
16 | CC(=O)c1cc(C(=O)N[C@H](Cc2ccc(-c3ccccc3)cc2)C[C@@H](O)C(=O)O)[nH]n1 [Example 1-B, (2R,4R)-4-[(5-Acetyl-2H-pyrazole-3-carbonyl)amino]-5-biphenyl-4-yl-2-hydroxypentanoic Acid] | ≥9.0 | 
17 | O=C(O)c1cccc(Cn2nnc3cc(C(=O)N[C@H](Cc4ccc(-c5ccccc5)cc4)CC(O)C(=O)O)ccc32)c1 (stereo partly drawn) [Example 11-1, 3-[5-((R)-1-Biphenyl-4-ylmethyl-3-carboxy-3-hydroxypropylcarbamoyl)-benzotriazol-1-ylmethyl]-benzoic acid] |  | 1.26 to 10
18 | O=C(O)c1ccc(C(=O)N[C@H](Cc2ccc(-c3ccccc3)cc2)CC(O)C(=O)O)nc1 (stereo partly drawn) [Example 13-7, 6-((R)-1-Biphenyl-4-ylmethyl-3-carboxy-3-hydroxypropylcarbamoyl)nicotinic acid] |  | 12.6 to 100
19 | O=C(N[C@H](Cc1ccc(-c2ccccc2)cc1)CC(O)C(=O)O)c1cnc2nn[nH]c2c1 (stereo partly drawn) [Example 11-11, (R)-5-Biphenyl-4-yl-2-hydroxy-4-[(1H-[1,2,3]triazolo[4,5-b]pyridine-6-carbonyl)-amino]-pentanoic acid] |  | 1.26 to 10
20 | CC(=O)Nc1cccc(-c2cc(C(=O)N[C@H](Cc3ccc(-c4ccccc4)cc3)CC(O)C(=O)O)n[nH]2)c1 (stereo partly drawn) [Example 15-31, (R)-4-{[5-(3-Acetylamino-phenyl)-1H-pyrazole-3-carbonyl]amino}-5-biphenyl-4-yl-2-hydroxypentanoic acid] |  | 1.26 to 10
21 | O=C(N[C@H](Cc1ccc(-c2ccccc2)cc1)C[C@@H](O)C(=O)O)c1cc(-c2cccnc2)[nH]n1 [Example 15-21, (2R,4R)-5-Biphenyl-4-yl-2-hydroxy-4-[(5-pyridin-3-yl-1H-pyrazole-3-carbonyl)-amino]-pentanoic acid] | ≥9.0 | 
22 | Cc1cc(C(=O)N[C@H](Cc2ccc(-c3ccccc3)cc2)CC(O)C(=O)O)cc2[nH]nnc12 (stereo partly drawn) [Example 11-6, (R)-5-Biphenyl-4-yl-2-hydroxy-4-[(7-methyl-3H-benzotriazole-5-carbonyl)amino]pentanoic acid] |  | 1.26 to 10
23 | O=C(N[C@H](Cc1ccc(-c2ccccc2)cc1)CC(O)C(=O)O)c1cc(C(=O)O)n(Cc2c(F)cc(Cl)cc2F)n1 (stereo partly drawn) [Example 15-8, 5-((R)-1-Biphenyl-4-ylmethyl-3-carboxy-3-hydroxy-propylcarbamoyl)-2-(4-chloro-2,6-difluorobenzyl)-2H-pyrazole-3-carboxylic acid] |  | 1.26 to 10
24 | COCc1cc(C(=O)N[C@H](Cc2ccc(-c3ccccc3)cc2)C[C@@H](O)C(=O)O)n[nH]1 [Example 15-4, (2R,4R)-5-Biphenyl-4-yl-2-hydroxy-4-[(5-methoxymethyl-1H-pyrazole-3-carbonyl)-amino]-pentanoic acid] |  | 1.26 to 10

From patent US10759813B2, “Neprilysin inhibitors” (THERAVANCE BIOPHARMA R&D IP, LLC, priority 2010, dated 2020)
